The values below come from patent US8796301B2, “Therapeutic or prophylactic agent for dyskinesia” (Toray Industries, Inc., priority 2007, dated 2014).

For assay [1], the system named is L-DOPA-induced dyskinesia in a rat model of Parkinson's disease. Kind of assay: L-DOPA-induced dyskinesia in a rat model of Parkinson's disease (6-hydroxydopamine lesion), dyskinesia score. The class given is in vivo.
The subject of a further assay is dyskinesia. Particulars: WO00/003715; cited from earlier work.

Turning to `CN(C(=O)/C=C/c1ccoc1)[C@@H]1CC[C@@]2(O)[C@H]3Cc4ccc(O)c5c4[C@@]2(CCN3CC2CC2)[C@H]1O5.Cl` [Compound 1, (−)-17-(cyclopropylmethyl)-3,14β-dihydroxy-4,5α-epoxy-6β-[N-methyl-trans-3-(3-furyl)acrylamido]morphinan hydrochloride], in assay [1] (10 μg/kg subcutaneous, simultaneously with L-DOPA 20 mg/kg oral, FIG. 1), the “effect on L-DOPA-induced dyskinesia (dyskinesia score vs control score)” value is “significantly suppressed dyskinesia”.

In the case of `COC(=O)/C=C/C(=O)N[C@@H]1CC[C@@]2(O)[C@H]3Cc4ccc(O)c5c4[C@@]2(CCN3CC2CC2)[C@H]1O5` [β-funaltrexamine], the “effect on L-DOPA-induced dyskinesia (dyskinesia score vs control score)” value in assay [1] (10 mg/kg subcutaneous, with L-DOPA 20 mg/kg oral, FIG. 2, FIG. 3, FIG. 4) is “did not influence L-DOPA-induced dyskinesia at all”; in assay [1] (30 mg/kg subcutaneous, with L-DOPA 20 mg/kg oral, FIG. 4), “did not influence L-DOPA-induced dyskinesia at all”. Also, the effect on dyskinesia result in the assay on dyskinesia is listed as “suppresses dyskinesia”.
